From patent US20030175979A1, “System and method for characterizing metabolites using hydrogen/deuterium exchange” (priority 2002, published 2003)
“Also recorded” adds a separate entry of the source.

How the values were obtained:
dog liver hepatocytes = assay: Incubation of [14C]PD 0200126 with dog hepatocytes, radiochromatographic metabolite profile; type: in vitro ADME; details: [14C]PD 0200126 incubated with dog hepatocytes for 180 minutes; flow-through radioactivity detector
Method: In Vitro Study. A proposed metabolite M2 (PD 0200126-glucuronide) was formed following incubation of [^14C]PD 0200126 with dog liver hepatocytes for 180 minutes.
Apparatus and Conditions. An Agilent 1100 HPLC system (Agilent Technologies, Wilmington, Del.), including pumps, autoinjector, and UV detector, was used to separate the metabolites. Separation of the metabolites was achieved using a Metasil AQ guard column (Metachem Technologies, Torrance, Calif.) and a 150 mm×4.6 mm MetaChem Polaris C-18 reversed-phase HPLC column (Metachem Technologies). […]
After passing through the UV detector (280 nm), the HPLC effluent was split so that 20%-30% of the flow was introduced into the mass spectrometer via an ESI source supplied with the mass spectrometer, while 70%-80% was diverted to the radioactivity detector (β-RAM, IN/US, Tampa, Fla.). The analog output from the UV detector, along with the MS signal, were recorded in real time by the data system provided with the mass spectrometer (Xcalibur V 1.2, ThermoFinnigan). […] The β-RAM data was integrated to obtain semi-quantitative information about the metabolites and the unchanged drug. The delay in response between the radioactivity detector and the MS was 0.2 min -0.4 min with the MS response being recorded first. […]

[1] = Metabolite profile in rabbit plasma after oral administration of PD 0200126 (LC-UV/MS); type: in vivo; details: 300 mg/kg oral PD 0200126, UV 280 nm and LC-MS
Method: In Vivo Studies. To obtain plasma samples, blood from rabbits was collected at various time points following a 300 mg/kg oral administration of PD 0200126. Plasma was precipitated by addition of 3 volumes of acetonitrile to 1 volume of plasma and then centrifuged. The resulting supernatant was decanted off, dried, and subsequently reconstituted in the mobile phase solvent (described below) prior to injection in the HPLC. A 100-μL aliquot was injected for each experiment (run).
Apparatus and Conditions. An Agilent 1100 HPLC system (Agilent Technologies, Wilmington, Del.), including pumps, autoinjector, and UV detector, was used to separate the metabolites. Separation of the metabolites was achieved using a Metasil AQ guard column (Metachem Technologies, Torrance, Calif.) and a 150 mm×4.6 mm MetaChem Polaris C-18 reversed-phase HPLC column (Metachem Technologies). The mobile phase comprised 20-mM ammonium acetate in water adjusted to pH 4 with acetic acid (Solvent A) and acetonitrile (Solvent B), and was maintained at a constant flow rate (1 mL/min) throughout each run. Gradient elution of the metabolites was achieved using programmed stepwise changes of solvent A/B ratios of 95/5, 50/50, 25/75, 5/95, and 95/5 at 0, 40, 50, 60, and 75 min, respectively.
After passing through the UV detector (280 nm), the HPLC effluent was split so that 20%-30% of the flow was introduced into the mass spectrometer via an ESI source supplied with the mass spectrometer, while 70%-80% was diverted to the radioactivity detector (β-RAM, IN/US, Tampa, Fla.). The analog output from the UV detector, along with the MS signal, were recorded in real time by the data system provided with the mass spectrometer (Xcalibur V 1.2, ThermoFinnigan). A separate software program (Win-Flow V 1.5, IN/US, Tampa, Fla.) was used to control the β-RAM and to collect the analog output from the β-RAM. The β-RAM data was integrated to obtain semi-quantitative information about the metabolites and the unchanged drug. The delay in response between the radioactivity detector and the MS was 0.2 min -0.4 min with the MS response being recorded first.
Trace amounts of PD 0200126 and M10 were also observed at m/z 425 and 409, respectively. Metabolites M1-M6 were characterized in a separate study involving rat and mouse hepatocytes.

Row | share of the total radioactivity associated with the component (dog liver hepatocytes) | abundance of drug/metabolite in plasma (UV component / extracted ion chromatogram) [1] | SMILES | abundance of drug/metabolite in plasma (UV component / extracted ion chromatogram) ([1]; 300 mg/kg)
1 | more than 90% |  | CC(C)[C@@H](NS(=O)(=O)c1ccc(-c2ccc(Br)cc2)cc1)C(=O)NOC1OC(C(=O)O)C(O)C(O)C1O (stereo partly drawn) [Metabolite M2, PD 0200126-glucuronide] | 
2 | minor amounts | prominent UV components | CC(C)[C@@H](NS(=O)(=O)c1ccc(-c2ccc(Br)cc2)cc1)C(=O)O [Metabolite M9, PD 0200126-carboxylic acid] | 
3 |  | Trace amounts | CC(C)[C@@H](NS(=O)(=O)c1ccc(-c2ccc(Br)cc2)cc1)C(=O)NO [PD 0200126, 2-(4′-bromo-biphenyl-4-sulfonylamino)-N-hydroxy-3-methyl-butyramide] | 

The remaining lines, values behind:

Row | SMILES | share of the total radioactivity associated with the component (dog liver hepatocytes) | abundance of drug/metabolite in plasma (UV component / extracted ion chromatogram) [1] | abundance of drug/metabolite in plasma (UV component / extracted ion chromatogram) ([1]; 300 mg/kg)
4 | NS(=O)(=O)c1ccc(-c2ccc(Br)cc2)cc1 [Metabolite M8, bromo-biphenylsulfonamide] |  | prominent UV components | 
5 | CC(C)[C@@H](NS(=O)(=O)c1ccc(-c2ccc(Br)cc2)cc1)C(N)=O [Metabolite M10] |  |  | Trace amounts; also recorded: minor UV component
